One experiment concerns Escherichia coli biofilm. Put plainly: Escherichia coli biofilm on projections, antibiotic treatment, manual cfu count. It is filed as cell-based. The procedure: Up to 8 different antibiotics or biocides can be tested by using 1 row (A-H) for each antimicrobial reagent. […] Rinse the remaining projections in PBS using a troughed vessel 20 and place the colonized projections into the 96 well antibiotic plate and incubate overnight at 37° C. […] (3) From the freshly sonicated plate remove 0.02 ml of the medium from each well and spot plate neat; and 0.025 ml from each well to prepare a serial dilution (10^−1 to 10^−6) and spot plate 0.02 ml (dilutions can be done in microtiter plates, one for each antibiotic). Place the plate containing the remaining medium and bacteria to incubate at 37° C., overnight. Day 4: Assay the sessile survival, by for example reading the plate incubated overnight at 490 nm or by counting the colonies on the plates to determine the actual number of surviving bacteria, or by using some other method known in the art. Several different conventional methods may be used to count the bacteria. It may be done by incubating the sonicated bacteria, taking serial dilutions and visually counting the colony forming units, or automated methods may be used, as for example using an optical reader to determine optical density. […] In the case of using vital dye technology, the biofilm need not be further incubated. In a further embodiment, the assay may be carried out by sonicating the cells until they lyse and release ATP and then adding luciferase to produce a mechanically readable light output. In a still further embodiment, the assay may be carried out directly on the biofilm on the projections using a confocal microscope, although it should be considered that this is difficult to automate. […] Examples are given to show a comparison between counts of planktonic bacteria and counts of sessile bacteria for the same growth conditions. […] The initial biofilm was colonized for four hours. The antibiotic was applied to the wells 2-12 of the rows A-H of a 96 well plate as follows: well 2: no antibiotic, well 3: 1000 μg/mL, well 4: 500 μg/mL . . . well 12: 2 μg/mL. 250 μL final volume of diluted antibiotic was applied to the wells.

Experiment [1] has as its system Escherichia coli planktonic bacteria. Put plainly: Escherichia coli planktonic bacteria, optical density reading of turbidity. Type of experiment: cell-based. The note with it: 490 nm. As to the method:
Up to 8 different antibiotics or biocides can be tested by using 1 row (A-H) for each antimicrobial reagent. […] Rinse the remaining projections in PBS using a troughed vessel 20 and place the colonized projections into the 96 well antibiotic plate and incubate overnight at 37° C.

[2] abbreviates: well 5 of doubling dilutions, well 3: 1000 μg/mL to well 12: 2 μg/mL.
Setting [3] is: well 6 of doubling dilutions, well 3: 1000 μg/mL to well 12: 2 μg/mL ([…] implied).
The mark [4] stands for this setting: well 7 of doubling dilutions, well 3: 1000 μg/mL to well 12: 2 μg/mL.
The mark [5] stands for this setting: well 8 of doubling dilutions, well 3: 1000 μg/mL to well 12: 2 μg/mL.
[6] abbreviates: well 9 of doubling dilutions, well 3: 1000 μg/mL to well 12: 2 μg/mL.

Results on 1 compound are retold here after patent publication US7041470B2, “Method of assaying the susceptibility of biofilms to anti-microbial agents” (University Technologies International, Inc., priority 1996, dated 2006).

For `CC(C)(O/N=C(\C(=O)N[C@@H]1C(=O)N2C(C(=O)[O-])=C(C[n+]3ccccc3)CS[C@H]12)c1csc(N)n1)C(=O)O` [F, ceftazidine], the “manually counted cfu, Escherichia coli biofilm” value with Escherichia coli biofilm (well 3: 1000 μg/mL antibiotic, biofilm colonized four hours) came to 0 cfu; in the experiment with Escherichia coli biofilm (well 4: 500 μg/mL antibiotic, biofilm colonized four hours), 0 cfu; in the experiment with Escherichia coli biofilm (setting [2]), 0 cfu; in the experiment on Escherichia coli biofilm (setting [3]) it was 0 cfu; in the experiment on Escherichia coli biofilm (setting [4]), 0 cfu; with Escherichia coli biofilm (setting [5]) it was 0 cfu. For the same compound, the “manually counted cfu, Escherichia coli biofilm” value in the experiment on Escherichia coli biofilm (setting [6]) turned out to be 0 cfu. Moreover, the “optical density reading of turbidity, Escherichia coli planktonic bacteria” value in experiment [1] (well 3: 1000 μg/mL antibiotic) is listed as “.123”; in experiment [1] (well 4: 500 μg/mL antibiotic), “.129”; in experiment [1] (setting [2]), “.134”; in experiment [1] (setting [3]) it was “.137”; in experiment [1] (setting [4]) it was “.128”; in experiment [1] (setting [5]), “.137”. Further, the “optical density reading of turbidity, Escherichia coli planktonic bacteria” value in experiment [1] (setting [6]) is reported as “.137”; in experiment [1] (well 10 of doubling dilutions, well 3: 1000 μg/mL to well 12: 2 μg/mL ([…] implied)), “.140”; in experiment [1] (well 11 of doubling dilutions, well 3: 1000 μg/mL to well 12: 2 μg/mL), “.147”; in experiment [1] (well 12: 2 μg/mL antibiotic), “.152”.
